Values joined by “and” are separate entries in the source; they are usually repeats but may differ in a detail not shown here. Equal entries are not always repeated. “Also recorded” adds a separate entry of the source. Where two headings read alike, the source gives them in different places.
Experiments:
Format in all cases: cell-based
[1] = test system: MCF-10A human mammary epithelial (non-cancer) cells; assay: Effect on intact cells in culture (growth, morphology, DAPI)
CHO cells = assay: Growth of CHO cells; conditions: EGCg
[2] = target: T1, tNOX activity of intact 4T1 mouse mammary cells (Mus musculus, UniProt Q8R0Z2); assay: Inhibition of tNOX (NADH oxidase) activity of intact 4T1 cells
T1 construct: endogenous in cells; host or cells: 4T1 mouse mammary carcinoma cells (intact)
T1 sequence (Q8R0Z2 1-598): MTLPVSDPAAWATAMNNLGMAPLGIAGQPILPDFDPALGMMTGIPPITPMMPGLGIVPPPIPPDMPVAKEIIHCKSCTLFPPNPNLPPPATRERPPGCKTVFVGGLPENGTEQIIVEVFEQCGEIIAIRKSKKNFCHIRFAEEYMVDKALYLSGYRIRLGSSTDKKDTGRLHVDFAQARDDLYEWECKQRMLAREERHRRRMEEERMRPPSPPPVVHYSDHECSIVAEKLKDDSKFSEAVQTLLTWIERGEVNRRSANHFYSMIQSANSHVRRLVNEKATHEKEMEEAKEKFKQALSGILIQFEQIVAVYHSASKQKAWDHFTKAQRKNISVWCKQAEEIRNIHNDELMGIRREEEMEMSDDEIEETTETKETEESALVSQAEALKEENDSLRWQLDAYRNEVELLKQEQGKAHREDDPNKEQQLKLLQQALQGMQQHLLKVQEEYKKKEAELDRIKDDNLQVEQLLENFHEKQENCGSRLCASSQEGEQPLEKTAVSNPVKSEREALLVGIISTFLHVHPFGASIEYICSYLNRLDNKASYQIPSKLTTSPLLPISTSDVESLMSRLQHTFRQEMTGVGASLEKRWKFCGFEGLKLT
Description: A mouse mammary tumor subpopulation line 4T1 arising from a BALB/cf C3H mouse was grown in DME-10, Dulbecco's modified Eagle's medium supplemented with 5% fetal calf serum, 5% newborn calf serum, 1 mM mixed non-essential amino acids, 2 mM L-glutamine, penicillin (100 units/ml), and streptomycin (100 μg/ml) (Miller et al., 1987, Brit. J. Can. 56:561-569 and Miller et al., 1990, Invasion Metastasis 10:101-112).
(§1) NADH oxidase activity was determined as the disappearance of NADH measured at 340 nm in a reaction mixture containing 25 mM Tris-Mes buffer (pH 7.2), 1 mM KCN, and 150 μM NADH at 37° C. Activity was measured using a Hitachi U3210 spectrophotometer with stirring and continuous recording over two intervals of 5 min each. A millimolar extinction coefficient of 6.22 was used to determine specific activity.
NADH oxidase activity was determined as the disappearance of NADH measured at 340 nm in a reaction mixture containing 25 mM Tris-Mes buffer (pH 7.2), 1 mM KCN, and 150 μM NADH at 37° C. Activity was measured at 340 nm with reference at 430 nm using an SLM Aminco DW-2000 spectrophotometer (Milton Roy, Rochester, N.Y.) in the dual beam mode of operation with stirring and continuous recording over two intervals of 5 min each. A millimolar extinction coefficient of 6.22 was used to determine specific activity.

[3] = target: T2, tNOX activity of HeLa S cells (Homo sapiens, UniProt Q16206); assay: NADH oxidase of intact HeLa (HeLa S) cells
T2 construct: Response of the NADH oxidase of HeLa S cells to (−)-epigallocatechin gallate (EGCg) alone; endogenous in cells; methods say ATCC CCL2
T2 sequence (Q16206 1-610): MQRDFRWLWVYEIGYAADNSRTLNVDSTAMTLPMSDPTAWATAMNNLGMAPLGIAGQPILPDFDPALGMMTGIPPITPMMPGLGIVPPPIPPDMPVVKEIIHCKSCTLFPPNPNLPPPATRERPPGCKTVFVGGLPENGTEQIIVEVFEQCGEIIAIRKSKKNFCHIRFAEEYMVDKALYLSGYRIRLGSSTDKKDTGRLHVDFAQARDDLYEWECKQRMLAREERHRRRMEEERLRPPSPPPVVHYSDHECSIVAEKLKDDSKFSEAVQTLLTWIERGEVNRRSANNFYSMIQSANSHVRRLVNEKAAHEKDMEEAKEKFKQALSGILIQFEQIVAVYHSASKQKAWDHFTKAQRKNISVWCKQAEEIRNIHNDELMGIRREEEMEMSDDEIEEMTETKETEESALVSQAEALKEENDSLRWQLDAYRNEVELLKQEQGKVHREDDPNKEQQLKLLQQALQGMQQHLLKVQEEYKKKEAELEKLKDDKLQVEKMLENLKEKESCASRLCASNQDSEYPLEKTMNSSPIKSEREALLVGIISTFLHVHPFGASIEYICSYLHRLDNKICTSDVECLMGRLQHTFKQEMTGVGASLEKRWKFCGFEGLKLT
Description: HeLa (ATCC CCL2) cells were grown in 150 cm^2 flasks in Minimal Essential Medium (Gibco), pH 7.4, at 37° C. with 10% bovine calf serum (heat-inactivated), plus 50 mg/l gentamicin sulfate (Sigma). Cells were trypsinized with Sigma IX trypsin for 1 to 2 min and harvested by scraping and taken up in 140 mM NaCl, 5 mM KCl, 0.7 mM Na2HPO4 and 25 mM Tris, pH 7.4, to a final cell concentration of 0.1 g wet weight (gww) per ml.
as §1

tNOX inhibition by EGCg, EC>90 ([2]; EC concentration 0 M): 10^−7 M
tNOX inhibition by EGCg, EC>90 ([2]; EC concentration 10^−4 M): 10^−8 M
tNOX inhibition by EGCg, EC>90 ([2]; EC concentration 10^−6 M): 10^−8 M
tNOX inhibition by EGCg, EC>90 ([2]; EC concentration 10^−8 M): 10^−7 M
EC50 ([2]; in the presence of 10^−4 M EC, read-out: EC50 for inhibition of the drug-responsive component of the plasma membrane NADH oxidase): 2 nM
EC50 ([2]; read-out: tNOX inhibition by EGCg, EC50, EC concentration 0 M): ~10 nM and 10 nM
EC50 ([2]; read-out: tNOX inhibition by EGCg, EC50, EC concentration 10^−4 M): 0.5 nM
EC50 ([2]; read-out: tNOX inhibition by EGCg, EC50, EC concentration 10^−6 M): 1 nM
EC50 ([2]; read-out: tNOX inhibition by EGCg, EC50, EC concentration 10^−8 M): 10 nM
Enhancement of the efficacy of EGCg inhibition ([2]; with both 10^−6 and 10^−4 M EC): ≥ 10 fold
EGCg concentration at which NOX activity was stimulated [3]: ≥ 10^−5 M
EGCg concentration for maximal inhibition of tNOX activity ([3]; EGCg alone, FIG. 12): 0.1 µM
Substance: (−) - epigallocatechin gallate [EGCg]
Fate of treated cells ([1]; 10 μM EGCg added at t=0, 96 h, FIG. 4): quickly recovered and eventually grew normally; also recorded: recovered fully
Growth rate and cell diameters ([1]; 10^−6 M EGCg twice daily for 96 h): unaffected or slightly increased
Response of the cell line ([1]; 10^−6 M EGCg, 72 h): no response
Growth of cells ([1]; EGCg, unaffected except at very high doses of 10^−4 M, FIG. 2C): unaffected; also recorded: much less affected
Growth of CHO cells (CHO cells): much less affected
